Measured values taken from patent US12612386B2, “Heteroaryl-triazole compounds as pesticides” (Bayer Aktiengesellschaft, priority 2020, dated 2026).

Key:
Assay type in all cases: in vivo
[1] = system: green peach aphid (Myzus persicae); assay: Myzus persicae spray test (MYZUPE); conditions: 120 h, 100 g/ha, after 5 days
Description: Myzus persicae—Spray Test
• Solvent: 78.0 parts by weight acetone • 1.5 parts by weight dimethylformamide • Emulsifier: alkylarylpoly glycol ether
(§1) To produce a suitable preparation of active compound, 1 part by weight of active compound is mixed with the stated amount of solvents and is diluted with water, containing an emulsifier concentration of 1000 ppm, to the desired concentration. Further test concentrations are prepared by dilution with emulsifier containing water.
Chinese cabbage (Brassica pekinensis) leaf disks infected with all instars of the green peach aphid (Myzus persicae), are sprayed with a preparation of the active ingredient of the desired concentration.
After 5 days mortality in % is determined. 100% means all aphids have been killed and 0% means none of the aphids have been killed.
Myzus persicae—Spray Test (MYZUPE)
• Solvent: 78.0 parts by weight acetone • 1.5 parts by weight dimethylformamide • Emulsifier: alkylarylpolyglycol ether
After the specified period of time, mortality in % is determined. 100% means all aphids have been killed and 0% means none of the aphids have been killed.

[2] = system: larvae of the banded cucumber beetle (Diabrotica balteata); assay: Diabrotica balteata spray test; conditions: 168 h, 100 g/ha (=32 μg/well), after 7 days, read-out: efficacy (seedling growth)
Method in brief: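 Germinated wheat seeds on agar (5 per well) were sprayed with compound formulated in acetone/DMF and diluted in water with 1000 ppm emulsifier. Each unit was then infested with 10–20 larvae. Efficacy % was scored after 7 days as seedling growth relative to an untreated, uninfested control (100% = normal growth).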

[3] = system: larvae of the southern green stink bug (Nezara viridula); assay: whole plant or invertebrate; conditions: 96 h
Method in brief: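 Compound in acetone/DMF was diluted in water with 1000 ppm alkylarylpolyglycol ether emulsifier. Barley plants were sprayed with it, then infested with Nezara viridula larvae. Mortality % was scored after 4 days (100% = all killed).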

[4] = system: brown planthopper (Nilaparvata lugens); assay: Nilaparvata lugens spray test; conditions: 96 h
Description: Nilaparvata lugens—Spray Test
• Solvent: 78.0 parts by weight of acetone • 1.5 parts by weight of dimethylformamide • Emulsifier: alkylarylpolyglycol ether
as §1
Rice plants (Oryza sativa) are sprayed with a preparation of the active ingredient of the desired concentration and the plants are infested with the brown planthopper (Nilaparvata lugens).
After 4 days mortality in % is determined. 100% means all planthoppers have been killed and 0% means none of the planthoppers have been killed.

[5] = system: fall armyworm larvae (Spodoptera frugiperda); assay: whole plant or invertebrate; conditions: 168 h
Method in brief: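 Maize leaf sections sprayed with compound in acetone/DMF with alkylarylpolyglycol ether emulsifier diluted in water, then infested with fall armyworm larvae once dry. Mortality (%) scored after 7 days; 100% = all caterpillars killed.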

[6] = system: cattle tick larvae (Rhipicephalus microplus), strain Parkhurst, resistant against synthetic pyrethroids; assay: Rhipicephalus (Boophilus) microplus in-vitro contact test, larval cattle tick; conditions: 5 μg/cm^2 (=500 g/ha), after 48 hours
Description: Rhipicephalus (Boophilus) Microplus—In-Vitro Contact Tests Larval Cattle Tick (Strain Parkhurst, Resistant Against Synthetic Pyrethroids)
9 mg compound is solved in 1 mL acetone and diluted with acetone to the desired concentration. 250 μL of the test solution is filled in 25 mL glass test tubes and homogeneously distributed on the inner walls by rotation and tilting on a shaking device (2 h at 30 rpm). With a compound concentration of 900 ppm, an inner surface of 44.7 cm^2 and a homogeneous distribution, a dose of 5 μg/cm^2 is achieved.
After the solvent has evaporated, each test tube is filled with 20-50 cattle tick larvae (Rhipicephalus microplus), closed with a perforated lid and incubated in a horizontal position at 85% relative humidity and 27° C. in an incubator. After 48 hours efficacy is determined. The larvae are patted on the ground of the tubes and negative geotactic behavior is recorded.
An efficacy of 100% means all larvae are dead or moribund; 0% means no larvae are dead or moribund.

[7] = system: adult mosquitoes Aedes aegypti strain MONHEIM; assay: Aedes aegypti test (AEDSAE surface treatment & contact assay); conditions: 24 hours after contact, read-out: efficacy (mortality)
Description: Aedes aegypti Test (AEDSAE Surface Treatment & Contact Assay)
Solvent: Aceton+2000 ppm rapeseed oil methyl ester (RME)
This solution is pipetted onto a glazed tile and after evaporation of the acetone, adult mosquitoes of the species Aedes aegypti strain MONHEIM are placed onto the dried surface. The exposure time is 30 minutes. Mortality in percent (%) is determined 24 hours after contact of the insects to the treated surface. 100% mortality means that all tested insects are dead, whereas 0% means that no insect died.

Structure (SMILES)	mortality at 100 g/ha [1] [%]	pest or weed control at 32 µg/disc, 100 g/ha [2] [%]	mortality at 500 g/ha [3] [%]	mortality at 500 g/ha [4] [%]	mortality at 100 g/ha [5] [%]	mortality at 100 g/ha [3] [%]	efficacy (larvae dead or moribund) [6] [%]	mortality at 4 mg/m2 ([7]; surface concentration 4 mg/m^2, 30 min exposure) [%]	mortality at 20 mg/m2 ([7]; surface concentration 20 mg/m^2, 30 min exposure) [%]
C[C@H](NC(=O)c1cc(Cl)cc(S(C)(=O)=O)c1)c1ncnn1-c1cc(C(N)=O)ncn1 [I-59]	90	100	100	100	–	–	–	–	–
CNC(=O)c1cc(-n2ncnc2[C@H](C)NC(=O)c2cc(Br)cc(OC(F)F)c2)ncn1 [I-72]	90	80	100	100	100	–	–	–	–
C[C@H](NC(=O)c1cc(C#N)cc(OC(F)(F)F)c1)c1ncnn1-c1cc(C(N)=O)ncn1 [I-121]	90	100	100	100	100	100	–	–	–
Cc1nc([C@H](C)NC(=O)c2cccc(OC(F)(F)F)c2)n(-c2cc(C(N)=O)ncn2)n1 [I-101]	90	100	100	100	100	–	–	–	–
C[C@H](NC(=O)c1cc(Cl)nc(C2(C#N)CC2)c1)c1ncnn1-c1cc(C#N)ncn1 [I-35, 2-chloro-6-(1-cyanocyclopropyl)-N-[(1S)-1-[2-(6-cyanopyrimidin-4-yl)-1,2,4-triazol-3-yl]ethyl]pyridine-4-carboxamide]	–	100	–	–	100	–	100	–	–
CNC(=O)c1nccc(-n2ncnc2[C@H](C)NC(=O)c2cc(OC(F)(F)F)cc(OC(F)(F)F)c2)n1 [I-116]	100	100	100	100	100	100	–	–	–
CNC(=O)c1cc(-n2ncnc2[C@H](C)NC(=O)c2cc(C(F)(F)F)cc(S(C)(=O)=O)c2)ncn1 [I-81]	100	100	100	100	100	–	–	–	–
CNC(=O)c1cc(-n2ncnc2[C@H](C)NC(=O)c2cc(OC(F)F)cc(OC(F)F)c2)ncn1 [I-94]	100	100	100	100	100	–	–	–	–
Cc1nc([C@H](C)NC(=O)c2cc(OC(F)(F)F)cc(C3CC3)c2)n(-c2cc(C#N)ncn2)n1 [I-25]	–	100	100	–	100	–	–	80 to 100	80 to 100
C[C@H](NC(=O)c1cc(OC(F)(F)F)cc(OC(F)(F)F)c1)c1nc(C2CC2)nn1-c1cc(C#N)ncn1 [I-37]	–	80	–	–	–	–	100	–	–
C[C@H](NC(=O)c1cc(Cl)cc(C#N)c1)c1ncnn1-c1cc(C(N)=O)ncn1 [I-125]	70	100	100	100	100	100	–	–	–
C[C@H](NC(=O)c1cccc(S(=O)(=O)C(F)(F)F)c1)c1ncnn1-c1cc(C(N)=O)ncn1 [I-140]	100	100	100	90	100	–	–	–	–
CNC(=O)c1cc(-n2ncnc2[C@H](C)NC(=O)c2cc(OC(F)(F)F)cc(S(C)(=O)=O)c2)ncn1 [I-83]	100	100	100	100	100	–	–	–	–
C[C@H](NC(=O)c1cc(Cl)cc(S(=O)(=O)C(F)F)c1)c1ncnn1-c1cc(C(N)=O)ncn1 [I-118]	90	100	100	100	100	100	–	–	–
C[C@H](NC(=O)c1cc(OC(F)(F)F)cc(S(C)(=O)=O)c1)c1ncnn1-c1cc(C(N)=O)ncn1 [I-82]	90	100	100	100	100	–	–	–	–
Cc1nc([C@H](C)NC(=O)c2cc(C(F)(F)F)cc(C(F)(F)F)c2)n(-c2cc(C(N)=O)ncn2)n1 [I-136]	90	100	100	100	100	–	–	–	–
C[C@H](NC(=O)c1cc(C(F)F)cc(C(F)F)c1)c1ncnn1-c1cc(C(=O)N(C)C)ncn1 [I-139]	100	100	100	100	–	–	–	–	–
C[C@H](NC(=O)c1cccc(C(F)(F)F)c1)c1ncnn1-c1cc(C(N)=O)ncn1 [I-92]	100	100	100	100	100	–	–	–	–
C[C@H](NC(=O)c1cc(OC(F)(F)F)cc(C(C)(C)F)c1)c1ncnn1-c1cc(C#N)ncn1 [I-142]	100	100	100	100	100	–	–	–	–
C[C@H](NC(=O)c1cc(OC(F)(F)F)cc(C2(C#N)CC2)c1)c1ncnn1-c1cc(C(N)=O)ncn1 [I-120]	90	100	100	100	100	100	–	–	–
Cc1nc([C@H](C)NC(=O)c2cc(OC(F)F)cc(OC(F)F)c2)n(-c2cc(C#N)ncn2)n1 [I-22]	–	100	100	–	100	–	100	–	–
C[C@H](NC(=O)c1cc(F)cc(C#N)c1)c1ncnn1-c1cc(C(N)=O)ncn1 [I-77]	100	100	100	100	–	–	–	–	–
CNC(=O)c1cc(-n2ncnc2[C@H](C)NC(=O)c2cc(Cl)cc(S(C)(=O)=O)c2)ncn1 [I-60]	90	100	100	100	–	–	–	–	–
C[C@H](NC(=O)c1cc(C(F)(F)F)cc(C(F)(F)F)c1)c1ncnn1-c1cc(C(=O)N(C)C)ncn1 [I-129]	100	100	100	100	100	–	–	–	–
C[C@H](NC(=O)c1cc(C(F)(F)F)cc(S(C)(=O)=O)c1)c1ncnn1-c1cc(C(N)=O)ncn1 [I-78]	90	100	100	100	100	–	–	–	–
C[C@H](NC(=O)c1cc(F)cc(OC(F)F)c1)c1ncnn1-c1cc(C(N)=O)ncn1 [I-79]	100	100	100	100	100	–	–	–	–
